Results as given in patent US11208412B2 (DAEGU-GYEONGBUK MEDICAL INNOVATION FOUNDATION, priority 2017, dated 2021).

Assays:
Assay in all cases: Kinase selectivity, DiscoverX scanMAX Kinase assay panel (% control)
Format in all cases: binding
[1] = biological target: T1, kinases of the scanMAX Kinase assay panel (Homo sapiens, UniProt Q8NEB9); conditions: kinase VPS34; 1 uM in DMSO
T1 construct: purchased DiscoverX Co. (contract measurement) scanMAX Kinase assay panel
Outline: (§1)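 Compounds were tested at 1 uM (in DMSO) against each panel kinase. % control was calculated as (compound − positive control)/(negative control − positive control)×100, where the positive control gives 0% and DMSO gives 100%. Activity toward a kinase was called at % control <35%.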

[2] = biological target: T2, kinases of the scanMAX Kinase assay panel (Homo sapiens, UniProt P43403); conditions: kinase ZAP70; 1 uM in DMSO
T2 construct: purchased DiscoverX Co. (contract measurement) scanMAX Kinase assay panel
T2 sequence (P43403 1-619): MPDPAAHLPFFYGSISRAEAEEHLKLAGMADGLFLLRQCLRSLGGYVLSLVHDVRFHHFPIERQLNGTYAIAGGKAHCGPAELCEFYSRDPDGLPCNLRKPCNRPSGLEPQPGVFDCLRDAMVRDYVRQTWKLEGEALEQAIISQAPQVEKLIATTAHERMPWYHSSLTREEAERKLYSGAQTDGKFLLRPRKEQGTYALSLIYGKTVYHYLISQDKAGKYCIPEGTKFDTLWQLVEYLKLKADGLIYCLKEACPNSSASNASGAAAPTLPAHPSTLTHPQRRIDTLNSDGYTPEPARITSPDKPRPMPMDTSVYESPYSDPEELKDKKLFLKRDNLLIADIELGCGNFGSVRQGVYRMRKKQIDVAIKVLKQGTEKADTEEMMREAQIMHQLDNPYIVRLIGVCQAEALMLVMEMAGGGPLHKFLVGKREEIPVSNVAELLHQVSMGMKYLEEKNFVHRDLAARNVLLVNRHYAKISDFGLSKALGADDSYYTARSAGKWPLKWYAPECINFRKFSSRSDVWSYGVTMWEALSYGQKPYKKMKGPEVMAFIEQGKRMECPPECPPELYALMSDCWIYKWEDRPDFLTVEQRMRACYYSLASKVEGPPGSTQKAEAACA
Outline: as §1

[3] = biological target: T3, kinases of the scanMAX Kinase assay panel (Homo sapiens, UniProt Q9NY57); conditions: kinase YANK2; 1 uM in DMSO
T3 construct: purchased DiscoverX Co. (contract measurement) scanMAX Kinase assay panel
T3 sequence (Q9NY57 whole entry): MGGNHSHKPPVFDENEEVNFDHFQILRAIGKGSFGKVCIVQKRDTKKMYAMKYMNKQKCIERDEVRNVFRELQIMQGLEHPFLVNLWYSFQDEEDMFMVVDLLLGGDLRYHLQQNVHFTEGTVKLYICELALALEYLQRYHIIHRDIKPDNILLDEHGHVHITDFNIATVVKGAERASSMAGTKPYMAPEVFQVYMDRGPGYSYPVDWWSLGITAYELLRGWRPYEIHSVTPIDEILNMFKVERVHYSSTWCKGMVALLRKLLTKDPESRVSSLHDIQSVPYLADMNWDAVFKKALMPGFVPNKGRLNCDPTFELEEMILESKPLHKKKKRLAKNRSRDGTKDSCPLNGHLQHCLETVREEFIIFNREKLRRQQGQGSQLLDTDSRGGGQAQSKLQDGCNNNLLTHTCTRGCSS
Outline: as §1

[4] = biological target: T4, kinases of the scanMAX Kinase assay panel (Homo sapiens, UniProt P48730); conditions: CSNK1D; 1 uM
T4 construct: purchased DiscoverX Co. (contract measurement) scanMAX Kinase assay panel
T4 sequence (P48730 whole entry): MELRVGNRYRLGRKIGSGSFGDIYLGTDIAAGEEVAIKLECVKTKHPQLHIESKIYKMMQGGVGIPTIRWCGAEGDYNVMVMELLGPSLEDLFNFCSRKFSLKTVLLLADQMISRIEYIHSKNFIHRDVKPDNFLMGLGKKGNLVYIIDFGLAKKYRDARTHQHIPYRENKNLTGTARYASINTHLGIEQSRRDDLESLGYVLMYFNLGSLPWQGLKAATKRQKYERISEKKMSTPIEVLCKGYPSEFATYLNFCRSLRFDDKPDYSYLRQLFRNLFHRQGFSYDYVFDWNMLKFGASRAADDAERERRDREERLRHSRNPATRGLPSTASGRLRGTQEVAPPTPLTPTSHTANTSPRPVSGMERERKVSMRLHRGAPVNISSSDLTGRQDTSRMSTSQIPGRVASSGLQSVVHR
Outline: as §1

[5] = biological target: T5, kinases of the scanMAX Kinase assay panel (Homo sapiens, UniProt P22607); conditions: FGFR3; 1 uM
T5 construct: purchased DiscoverX Co. (contract measurement) scanMAX Kinase assay panel
Outline: as §1

[6] = biological target: T6, kinases of the scanMAX Kinase assay panel (Homo sapiens, UniProt P49840); conditions: GSK3A; 1 uM
T6 construct: purchased DiscoverX Co. (contract measurement) scanMAX Kinase assay panel
T6 sequence (P49840 whole entry): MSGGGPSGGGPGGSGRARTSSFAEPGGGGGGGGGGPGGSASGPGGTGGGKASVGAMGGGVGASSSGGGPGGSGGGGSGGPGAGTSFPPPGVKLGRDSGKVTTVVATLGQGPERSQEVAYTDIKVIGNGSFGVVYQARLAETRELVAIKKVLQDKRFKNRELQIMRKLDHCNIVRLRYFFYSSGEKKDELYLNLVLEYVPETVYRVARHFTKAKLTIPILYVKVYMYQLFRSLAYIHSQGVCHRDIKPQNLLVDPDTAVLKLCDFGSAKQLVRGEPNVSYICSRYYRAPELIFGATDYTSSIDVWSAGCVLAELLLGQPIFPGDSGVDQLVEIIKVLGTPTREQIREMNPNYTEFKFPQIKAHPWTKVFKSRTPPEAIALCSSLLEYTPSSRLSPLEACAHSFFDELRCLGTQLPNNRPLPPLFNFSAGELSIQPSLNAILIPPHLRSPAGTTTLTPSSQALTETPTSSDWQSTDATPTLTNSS
Outline: as §1

[7] = biological target: T7, kinases of the scanMAX Kinase assay panel (Homo sapiens, UniProt Q9Y6R4); conditions: MAP3K4; 1 uM
T7 construct: purchased DiscoverX Co. (contract measurement) scanMAX Kinase assay panel
T7 sequence (Q9Y6R4 whole entry): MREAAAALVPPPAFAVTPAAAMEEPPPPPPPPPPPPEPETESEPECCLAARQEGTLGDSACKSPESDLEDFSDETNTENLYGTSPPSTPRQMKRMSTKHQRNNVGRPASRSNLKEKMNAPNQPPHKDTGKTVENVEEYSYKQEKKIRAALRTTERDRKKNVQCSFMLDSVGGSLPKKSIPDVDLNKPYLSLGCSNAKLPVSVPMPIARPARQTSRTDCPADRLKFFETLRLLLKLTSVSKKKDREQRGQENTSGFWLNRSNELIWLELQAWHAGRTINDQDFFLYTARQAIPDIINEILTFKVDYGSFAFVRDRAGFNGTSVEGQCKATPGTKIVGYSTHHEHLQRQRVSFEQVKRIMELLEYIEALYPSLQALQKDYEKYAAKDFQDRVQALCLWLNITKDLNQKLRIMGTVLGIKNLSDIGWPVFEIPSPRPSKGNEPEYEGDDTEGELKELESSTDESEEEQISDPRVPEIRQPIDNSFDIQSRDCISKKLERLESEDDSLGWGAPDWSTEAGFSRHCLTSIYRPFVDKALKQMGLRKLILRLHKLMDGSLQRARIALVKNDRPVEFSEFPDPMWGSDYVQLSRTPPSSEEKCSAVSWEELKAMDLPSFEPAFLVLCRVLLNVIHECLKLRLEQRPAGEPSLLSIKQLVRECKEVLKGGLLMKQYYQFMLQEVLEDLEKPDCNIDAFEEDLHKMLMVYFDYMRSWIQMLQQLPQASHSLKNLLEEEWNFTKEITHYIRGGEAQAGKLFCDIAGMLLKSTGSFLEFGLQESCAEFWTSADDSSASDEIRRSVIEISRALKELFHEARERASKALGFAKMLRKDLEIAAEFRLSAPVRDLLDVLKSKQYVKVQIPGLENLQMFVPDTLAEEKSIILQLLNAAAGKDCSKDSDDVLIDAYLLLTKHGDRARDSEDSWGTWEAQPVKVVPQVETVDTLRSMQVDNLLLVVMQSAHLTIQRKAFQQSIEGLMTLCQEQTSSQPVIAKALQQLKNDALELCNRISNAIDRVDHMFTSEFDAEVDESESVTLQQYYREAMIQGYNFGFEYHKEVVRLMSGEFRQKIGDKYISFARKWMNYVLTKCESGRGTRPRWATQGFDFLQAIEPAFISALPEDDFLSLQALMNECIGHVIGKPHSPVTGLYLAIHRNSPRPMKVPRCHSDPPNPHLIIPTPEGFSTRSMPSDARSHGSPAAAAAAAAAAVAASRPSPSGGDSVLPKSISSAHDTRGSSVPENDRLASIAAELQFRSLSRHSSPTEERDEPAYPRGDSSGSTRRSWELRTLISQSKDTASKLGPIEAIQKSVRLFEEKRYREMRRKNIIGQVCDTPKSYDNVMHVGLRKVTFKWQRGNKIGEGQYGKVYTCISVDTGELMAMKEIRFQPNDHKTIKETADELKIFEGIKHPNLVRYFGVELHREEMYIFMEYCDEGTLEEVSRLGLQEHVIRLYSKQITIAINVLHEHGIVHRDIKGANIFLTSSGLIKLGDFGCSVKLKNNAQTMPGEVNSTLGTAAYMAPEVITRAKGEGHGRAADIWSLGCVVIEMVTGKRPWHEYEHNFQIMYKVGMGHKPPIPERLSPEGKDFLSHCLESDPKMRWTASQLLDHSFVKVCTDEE
Outline: as §1

[8] = biological target: T8, kinases of the scanMAX Kinase assay panel (Homo sapiens, UniProt P23443); conditions: kinase S6K1; 1 uM in DMSO
T8 construct: purchased DiscoverX Co. (contract measurement) scanMAX Kinase assay panel
T8 sequence (P23443 whole entry): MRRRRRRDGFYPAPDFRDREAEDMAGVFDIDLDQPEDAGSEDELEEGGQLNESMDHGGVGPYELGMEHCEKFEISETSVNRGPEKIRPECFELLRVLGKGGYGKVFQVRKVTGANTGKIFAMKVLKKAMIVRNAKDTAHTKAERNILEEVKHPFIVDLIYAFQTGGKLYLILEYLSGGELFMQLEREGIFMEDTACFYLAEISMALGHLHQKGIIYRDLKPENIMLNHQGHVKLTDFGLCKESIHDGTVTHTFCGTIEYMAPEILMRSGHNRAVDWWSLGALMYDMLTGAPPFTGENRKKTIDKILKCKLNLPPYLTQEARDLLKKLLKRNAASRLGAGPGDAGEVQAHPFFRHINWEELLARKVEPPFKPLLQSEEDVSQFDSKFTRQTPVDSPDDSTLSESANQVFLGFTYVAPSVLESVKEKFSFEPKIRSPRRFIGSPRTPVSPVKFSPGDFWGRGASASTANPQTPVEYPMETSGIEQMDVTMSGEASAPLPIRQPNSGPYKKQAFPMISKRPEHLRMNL
Outline: as §1

[9] = biological target: T9, kinases of the scanMAX Kinase assay panel (Homo sapiens, UniProt P00519, Y253F); conditions: ABL1(Y253F)-phosphorylated; 1 uM
T9 construct: purchased DiscoverX Co. (contract measurement) scanMAX Kinase assay panel
Outline: as §1

[10] = biological target: T10, kinases of the scanMAX Kinase assay panel (Homo sapiens, UniProt O15197); conditions: EPHB6; 1 uM
T10 construct: purchased DiscoverX Co. (contract measurement) scanMAX Kinase assay panel
T10 sequence (O15197 32-1021): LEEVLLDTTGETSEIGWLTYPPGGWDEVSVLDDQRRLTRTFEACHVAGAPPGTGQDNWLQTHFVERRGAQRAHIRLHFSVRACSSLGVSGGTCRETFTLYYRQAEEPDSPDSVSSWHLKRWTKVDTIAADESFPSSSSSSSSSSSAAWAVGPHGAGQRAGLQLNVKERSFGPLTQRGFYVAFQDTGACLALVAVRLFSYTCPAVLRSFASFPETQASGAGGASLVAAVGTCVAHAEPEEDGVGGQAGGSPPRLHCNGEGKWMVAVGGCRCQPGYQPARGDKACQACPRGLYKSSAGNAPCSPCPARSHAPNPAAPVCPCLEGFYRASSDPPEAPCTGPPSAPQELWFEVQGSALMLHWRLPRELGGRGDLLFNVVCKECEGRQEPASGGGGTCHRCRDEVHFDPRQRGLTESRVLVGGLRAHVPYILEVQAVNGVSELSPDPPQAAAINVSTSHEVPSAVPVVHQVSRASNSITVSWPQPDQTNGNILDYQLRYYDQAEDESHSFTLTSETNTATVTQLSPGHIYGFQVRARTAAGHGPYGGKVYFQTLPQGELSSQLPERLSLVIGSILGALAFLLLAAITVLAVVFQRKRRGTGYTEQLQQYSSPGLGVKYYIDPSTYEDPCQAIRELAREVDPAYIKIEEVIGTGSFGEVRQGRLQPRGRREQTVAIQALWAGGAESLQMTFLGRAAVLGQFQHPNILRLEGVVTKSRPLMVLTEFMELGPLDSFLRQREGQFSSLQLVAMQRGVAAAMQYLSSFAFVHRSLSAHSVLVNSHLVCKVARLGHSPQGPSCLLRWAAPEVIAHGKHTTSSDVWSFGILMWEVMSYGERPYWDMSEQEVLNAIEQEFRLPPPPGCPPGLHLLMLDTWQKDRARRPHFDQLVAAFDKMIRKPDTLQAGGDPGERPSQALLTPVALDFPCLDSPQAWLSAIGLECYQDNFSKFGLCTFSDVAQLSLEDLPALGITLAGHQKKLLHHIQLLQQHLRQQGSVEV
Outline: as §1

[11] = biological target: T11, kinases of the scanMAX Kinase assay panel (Homo sapiens, UniProt Q8NI60); conditions: ADCK3; 1 uM
T11 construct: purchased DiscoverX Co. (contract measurement) scanMAX Kinase assay panel
T11 sequence (Q8NI60 163-647): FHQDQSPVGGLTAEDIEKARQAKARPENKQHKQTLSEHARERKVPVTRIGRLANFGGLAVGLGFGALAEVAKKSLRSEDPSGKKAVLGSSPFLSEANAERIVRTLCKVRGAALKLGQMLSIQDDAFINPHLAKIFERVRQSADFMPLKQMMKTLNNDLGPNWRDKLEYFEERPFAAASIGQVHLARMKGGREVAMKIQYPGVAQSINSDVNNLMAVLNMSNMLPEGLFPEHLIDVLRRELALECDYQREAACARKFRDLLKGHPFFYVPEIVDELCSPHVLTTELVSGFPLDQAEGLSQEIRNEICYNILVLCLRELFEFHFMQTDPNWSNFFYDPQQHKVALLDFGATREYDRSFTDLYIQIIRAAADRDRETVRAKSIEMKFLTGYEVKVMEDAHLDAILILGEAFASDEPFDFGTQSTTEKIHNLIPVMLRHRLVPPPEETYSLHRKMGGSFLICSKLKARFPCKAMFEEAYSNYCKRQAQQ
Outline: as §1

T1 sequence (Q8NEB9 whole entry): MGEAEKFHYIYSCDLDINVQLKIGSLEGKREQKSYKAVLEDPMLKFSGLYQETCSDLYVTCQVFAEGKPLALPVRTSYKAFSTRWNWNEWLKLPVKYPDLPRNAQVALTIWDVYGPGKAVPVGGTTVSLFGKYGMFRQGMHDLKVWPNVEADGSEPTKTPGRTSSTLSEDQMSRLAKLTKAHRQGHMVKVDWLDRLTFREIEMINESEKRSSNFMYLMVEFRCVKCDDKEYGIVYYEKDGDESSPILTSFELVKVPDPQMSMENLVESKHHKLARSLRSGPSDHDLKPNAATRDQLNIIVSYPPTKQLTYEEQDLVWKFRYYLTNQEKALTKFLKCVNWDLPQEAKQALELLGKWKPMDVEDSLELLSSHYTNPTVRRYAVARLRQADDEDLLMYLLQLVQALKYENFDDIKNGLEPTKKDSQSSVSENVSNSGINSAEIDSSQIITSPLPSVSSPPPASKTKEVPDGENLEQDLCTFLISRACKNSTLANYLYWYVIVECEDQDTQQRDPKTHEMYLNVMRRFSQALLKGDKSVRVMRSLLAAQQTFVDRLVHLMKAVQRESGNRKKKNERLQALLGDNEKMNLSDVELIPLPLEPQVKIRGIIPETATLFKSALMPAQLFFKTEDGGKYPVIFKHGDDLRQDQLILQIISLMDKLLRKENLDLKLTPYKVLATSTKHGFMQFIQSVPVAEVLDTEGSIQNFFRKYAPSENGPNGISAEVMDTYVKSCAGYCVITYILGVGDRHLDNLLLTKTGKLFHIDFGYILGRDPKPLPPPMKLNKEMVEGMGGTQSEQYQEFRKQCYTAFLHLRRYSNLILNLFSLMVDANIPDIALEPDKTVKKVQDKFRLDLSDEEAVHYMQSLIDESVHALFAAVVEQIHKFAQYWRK

Row | Structure (SMILES) | remaining binding at 1 µM [1] | remaining binding at 1 µM [2] | remaining binding at 1 µM [3] | remaining binding at 1 µM [4] | remaining binding at 1 µM [5] | remaining binding at 1 µM [6] | remaining binding at 1 µM [7] | remaining binding at 1 µM [8] | remaining binding at 1 µM [9] | remaining binding at 1 µM [10] | remaining binding at 1 µM [11]
1 | CC1(Nc2nc(Nc3cnn([C@H]4CCN(C5COC5)C[C@@H]4F)c3Cl)nc3[nH]cc(C#N)c23)CC1 [Example 52, 2-((5-chloro-1-((3S,4S)-3-fluoro-1-(oxetane-3-yl)piperidine-4-yl)-1H-pyrazole-4-yl)amino)((1-methylcyclopropyl)amino)-7H-pyrrolo[2,3-d]pyrimidine-5-carbonitrile] | 100% | 2.2% | 100% | 1% | 9.8% | 12% | 77% | 52% | 1% | 3.7% | 98%
2 | CNc1nc(Nc2ccc(C(=O)N3CCOCC3)cc2OC)nc2[nH]cc(C#N)c12 [Example 1, 2-((2-methoxy-4-(morpholine-4-carbonyl)phenyl)amino)-4-(methylamino)-7H-pyrrolo[2,3-d]pyrimidine-5-carbonitrile] | 84% | 35% | 85% | 5% | 100% | 100% | 100% | 70% | 97% | 84% | 94%
3 | CCNc1nc(Nc2ccc(C(=O)N3CCC(N4CCOCC4)CC3)cc2OC)nc2[nH]cc(C(F)(F)F)c12 [Example 104, (4-((4-(ethylamino)-5-(trifluoromethyl)-7H-pyrrolo[2,3-d]pyrimidine-2-yl)amino)-3-methoxyphenyl)(4-morpholinopiperidine-1-yl)methanone] | 78% | 100% | 100% | 2.6% | 100% | 100% | 97% | 80% | 86% | 95% | 100%
